Measurements from patent US6699676B1, “Uses of ouabain and ouabain-like molecules in apoptosis related pathologies” (Corporation du Centre de Recherche du Centre, Hospitalier …, priority 1999, dated 2004).

Tested on: VSMC
Test: Chromatin cleavage assay in non-transfected VSMC
Assay type: cell-based, rat
Method: Cells were incubated in K^+-containing medium consisting of 91 mM NaCl, 5 mM KCl, 0.9 mM NaH2PO4, 44 mM NaHCO3, 1.8 mM CaCl2, 0.8 mM MgCl2, 33 mM HEPES and 5 mM D-glucose (pH 7.4) (lines 1 and 2) or in K^+-depleted medium (equimolar substitution of KCl by NaCl, line 3) with or without 10% calf serum (CS) and 1 mM ouabain as indicated. In experiments with VSMC-MYC and VSMC-E1A, cells were preincubated for 1 hr with ouabain or with K^+-depleted medium in the presence of CS and then subjected to treatment with serum-free media. After 24 hours (VSMC) or 6 hours (VSMC-MYC and VSMC-E1A), the content of chromatin fragments was measured as described in Experimental Procedures. Mean values±S.E. obtained in 3 experiments performed in quadruplicate (VSMC) or triplicate (VSMC-MYC, VSMC-E1A) are given. ★, ★★ p<0.05 and 0.001 compared to the controls.
VSMC growing in 6-well (LDH release) or 24-well (chromatin cleavage assay) plates were preincubated for 3 hours with or without 1 mM ouabain. In part of the experiments, the cells were subjected to 30 min incubation at 46° C. (heat-treated cells, line 3). They were then incubated in the absence or presence of 10% calf serum during additional 8 hr and chromatin cleavage and LDH release were measured as indicated in Experimental Procedures and with a spectrophotometric kit (Sigma), respectively. Means±S.E. from experiments performed in triplicate (LDH release) or quadruplicate (chromatin cleavage) are given. ★, ★★ p<0.05 and 0.001 compared to ouabain-untreated cells. #p<0.001 compared to serum-supplied, heat-untreated cells.
Cells. VSMC were obtained by explant methods from aortas of 10- to 13-week-old male rats as described previously (17), cultured in DMEM with 10% calf serum, 100 U/ml penicillin, 100 µg/ml streptomycin and used between 10 to 16 passages. Cells transfected with c-myc (VSMC-MYC) and E1A-adenovirus (VSMC-E1A) were obtained in accordance with a previously-described protocol (18,19) and were cultured in the same medium with the addition of 500 µg/ml genticin. Jurkat cells were obtained from the American Type Culture Collection and cultured in RPMI 1640 medium supplied with 10% calf serum, antibiotics, sodium pyruvate, glutamate and β-mercaptoethanol.
Chromatin cleavage assay. Chromatin cleavage in VSMC was estimated by a technique described previously in detail (10). Briefly, VSMC grown in 24-well dishes were labeled for 24 hours in serum-supplied DMEM with [^3H]-thymidine (1 μCi/ml), washed with 2×2 ml of DMEM and incubated in serum-supplied DMEM. […] After 15 min, the cell lysate was transferred to Ependorf tubes, sedimented (12,000 rpm, 10 mm), and 1 ml of supernatant was transferred for the measurement of radioactivity (A1t). The remaining radioactivity from pellets and wells was extracted with 0.5 ml of 1% SDS/4 mM EDTA mixture, combined and counted (A2). Chromatin cleavage was quantified as the content of chromatin fragments normalized by total content of [^3H]-labeled DNA in accordance with the equation [1.5×(A1t−A1o)/(A2+A1t−1.5A1o)]×100% where A1o is the value of A1t before induction of apoptosis. […] At the time intervals shown in FIG. 4, 100 μl of cell suspension was mixed with 100 μl of PBS contairung 0.5% triton X100, and the content of chromatin fragments was measured as described previously in detail (20).

C[C@@H]1O[C@@H](O[C@H]2C[C@@H](O)[C@]3(CO)[C@H]4[C@H](O)C[C@]5(C)[C@@H](C6=CC(=O)OC6)CC[C@]5(O)[C@@H]4CC[C@]3(O)C2)[C@H](O)[C@H](O)[C@H]1O [Ouabain, 1β,3β,5,11α,14,19-hexahydroxycard 20 [22]-enolide 3-[6-deoxy-α-L-mannopyrano-sidel]] was tested. Which “Chromatin fragments (%)” value (VSMC, 10% CS, 1 mM ouabain, 24 hours) did it give?
Its value is 1.6 ± 0.3%.

And the “Chromatin fragments (%)” value (VSMC, CS-free, 1 mM ouabain, 24 hours)?
Its value is 2.5 ± 0.6 %.

What about the “Chromatin fragments (%)” value (serum-deprived VSMC, 3 hours preincubation 1 mM ouabain, additional 8 hr) of the same compound?
The value was 1.8 ± 0.3 %.

What about the “Chromatin fragments (%)” value (serum-supplied VSMC, 3 hours preincubation 1 mM ouabain, additional 8 hr) of the same compound?
The value was 1.3 ± 0.4 %.

What about the “Chromatin fragments (%)” value (serum-supplied, heat-treated (46° C., 30 min) VSMC, 1 mM ouabain, 8 hr) of the same compound?
The value was 1.6 ± 0.4%.
